Columns and labels:
[1] = target: Delta-type opioid receptor (Homo sapiens, UniProt P41143); assay: Displacement of [3H]-diprenorphine from human delta opioid receptor expressed in cell membranes
[2] = target: Kappa-type opioid receptor (Cavia porcellus, UniProt P41144); assay: Displacement of [3H]-diprenorphine from guinea pig kappa opioid receptor expressed in CHOK1 cell membranes; conditions: cho-k1
[3] = target: Mu-type opioid receptor (Homo sapiens) (UniProt P35372); assay: Intrinsic activity at human mu opioid receptor expressed in CHOK1 cell membranes at 0.00001 to 20 uM after 30 mins by GTP-Eu nucleotide exchange assay relative to DAMGO; type: functional; conditions: CHO-K1
Mu-type opioid receptor (Homo sapiens), sequence (P35372 whole entry): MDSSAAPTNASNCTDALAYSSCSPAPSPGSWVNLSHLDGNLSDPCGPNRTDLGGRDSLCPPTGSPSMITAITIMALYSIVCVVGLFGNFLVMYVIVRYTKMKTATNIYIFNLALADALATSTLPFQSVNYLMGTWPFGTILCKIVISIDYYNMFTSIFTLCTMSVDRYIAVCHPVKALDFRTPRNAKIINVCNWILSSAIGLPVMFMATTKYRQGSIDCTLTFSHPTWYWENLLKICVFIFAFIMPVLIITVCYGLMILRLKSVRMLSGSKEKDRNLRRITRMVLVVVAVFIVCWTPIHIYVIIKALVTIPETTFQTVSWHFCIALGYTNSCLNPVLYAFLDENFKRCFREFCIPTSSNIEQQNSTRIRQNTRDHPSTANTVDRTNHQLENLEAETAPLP

Kappa-type opioid receptor, sequence (P41144 whole entry): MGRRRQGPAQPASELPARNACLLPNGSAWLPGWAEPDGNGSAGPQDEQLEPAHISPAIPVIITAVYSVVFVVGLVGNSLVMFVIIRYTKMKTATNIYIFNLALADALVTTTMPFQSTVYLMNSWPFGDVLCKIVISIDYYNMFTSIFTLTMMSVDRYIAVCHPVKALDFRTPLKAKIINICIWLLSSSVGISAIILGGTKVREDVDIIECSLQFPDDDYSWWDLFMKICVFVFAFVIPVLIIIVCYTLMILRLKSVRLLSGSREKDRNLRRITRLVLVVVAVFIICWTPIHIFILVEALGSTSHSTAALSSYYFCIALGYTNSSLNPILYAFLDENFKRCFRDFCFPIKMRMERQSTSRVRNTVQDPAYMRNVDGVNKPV
Delta-type opioid receptor, sequence (P41143 whole entry): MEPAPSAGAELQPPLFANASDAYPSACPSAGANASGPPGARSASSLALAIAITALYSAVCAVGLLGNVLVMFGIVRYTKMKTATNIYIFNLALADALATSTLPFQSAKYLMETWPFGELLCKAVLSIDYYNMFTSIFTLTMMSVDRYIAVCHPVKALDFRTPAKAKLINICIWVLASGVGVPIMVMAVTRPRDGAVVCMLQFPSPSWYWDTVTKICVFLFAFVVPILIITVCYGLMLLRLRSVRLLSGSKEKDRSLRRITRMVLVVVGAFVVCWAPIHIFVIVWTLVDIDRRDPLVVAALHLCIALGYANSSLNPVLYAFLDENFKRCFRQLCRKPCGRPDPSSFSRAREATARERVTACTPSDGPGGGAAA

Compound | pKi [1] | pKi [2] | Intrinsic activity [3] [%]
CN(C)CC[C@H](O)C(=O)N(CCN1[C@@H]2CC[C@H]1C[C@@H](c1cccc(C(N)=O)c1)C2)CC1CCCCC1 | 7 to 10.5 | 7 to 10.5 | < 40
NC(=O)c1cccc([C@H]2C[C@H]3CC[C@@H](C2)N3CCN(CC2CCC2)C(=O)CO)c1.O=C(O)C(F)(F)F | 7 to 10.5 | 7 to 10.5 | < 40
NC(=O)c1cccc([C@H]2C[C@H]3CC[C@@H](C2)N3CCN(CC23CC4CC(CC(C4)C2)C3)C(=O)CO)c1 | – | – | < 40
O=C([C@@H](O)c1ccccc1)N(CCN1[C@@H]2CC[C@H]1C[C@@H](c1cccc(O)c1)C2)CC1CCCCC1 | 7 to 10.5 | 7 to 10.5 | < 40
CN(C)S(=O)(=O)N(CCN1[C@@H]2CC[C@H]1C[C@@H](c1cccc(C(N)=O)c1)C2)Cc1ccc(C(F)(F)F)cc1.O=C(O)C(F)(F)F | 7 to 10.5 | 7 to 10.5 | < 40
NC(=O)c1cccc([C@H]2C[C@H]3CC[C@@H](C2)N3CCCN(Cc2ccccc2)C(=O)CO)c1 | 7 to 10.5 | 7 to 10.5 | < 40
C[C@H](CN1[C@@H]2CC[C@H]1C[C@@H](c1cccc(O)c1)C2)N(Cc1ccccc1)C(=O)CCC1CCCC1 | 7 to 10.5 | 7 to 10.5 | < 40
O=C(CO)N(CCN1[C@@H]2CC[C@H]1C[C@@H](c1cccc(O)c1)C2)CC1CCCCC1 | 7 to 10.5 | 7 to 10.5 | < 40
O=C([C@H](O)C1CCCCC1)N(CCN1[C@@H]2CC[C@H]1C[C@@H](c1cccc(O)c1)C2)CC1CCCCC1 | 7 to 10.5 | 7 to 10.5 | < 40
CC(=O)N(CCN1[C@@H]2CC[C@H]1C[C@@H](c1cccc(O)c1)C2)CC12CC3CC(CC(C3)C1)C2 | – | – | < 40
CS(=O)(=O)N(CCN1[C@@H]2CC[C@H]1C[C@@H](c1cccc(C(N)=O)c1)C2)Cc1c(F)cccc1F.O=C(O)C(F)(F)F | 7 to 10.5 | 7 to 10.5 | < 40
CCC(CC)C(=O)N(CCN1[C@@H]2CC[C@H]1C[C@@H](c1cccc(O)c1)C2)Cc1ccccc1 | 7 to 10.5 | 7 to 10.5 | < 40
O=C(Nc1ccc(OC(F)F)cc1)N(CCN1[C@@H]2CC[C@H]1C[C@@H](c1cccc(O)c1)C2)CC1CCCCC1 | 7 to 10.5 | 7 to 10.5 | < 40
O=C(CO)N(CCN1[C@@H]2CC[C@H]1C[C@@H](c1cccc(O)c1)C2)Cc1ccc(C(F)(F)F)cc1 | 7 to 10.5 | 7 to 10.5 | < 40
CS(=O)(=O)CC(=O)N(CCCN1[C@@H]2CC[C@H]1C[C@@H](c1cccc(C(N)=O)c1)C2)CC1CCCCC1 | 7 to 10.5 | 7 to 10.5 | < 40
O=C(O)CC1(CC(=O)N(CCN2[C@@H]3CC[C@H]2C[C@@H](c2cccc(O)c2)C3)CC2CCCCC2)CCCC1 | 7 to 10.5 | 7 to 10.5 | < 40
CC(=O)N(CCN1[C@@H]2CC[C@H]1C[C@@H](c1cccc(O)c1)C2)Cc1c(F)cccc1F | 7 to 10.5 | 7 to 10.5 | < 40
NC(=O)c1cccc([C@H]2C[C@H]3CC[C@@H](C2)N3CCN(CC2CCCCC2)C(=O)CCCO)c1 | 7 to 10.5 | 7 to 10.5 | < 40
CS(=O)(=O)CC(=O)N(CCN1[C@@H]2CC[C@H]1C[C@@H](c1cccc(O)c1)C2)Cc1cccc(F)c1 | 7 to 10.5 | 7 to 10.5 | < 40
COCC(=O)N(CCN1[C@@H]2CC[C@H]1C[C@@H](c1cccc(C(N)=O)c1)C2)CC1CCCCC1.O=C(O)C(F)(F)F | 7 to 10.5 | 7 to 10.5 | < 40
CCC(CC)C(=O)N(Cc1ccccc1)[C@H](C)CN1[C@@H]2CC[C@H]1C[C@@H](c1cccc(O)c1)C2 | 7 to 10.5 | 7 to 10.5 | < 40

Compound | pKi [1] | pKi [2] | Intrinsic activity [3] [%]
O=C(Nc1cccc(F)c1)N(CCN1[C@@H]2CC[C@H]1C[C@@H](c1cccc(O)c1)C2)CC1CCCCC1 | 7 to 10.5 | 7 to 10.5 | < 40
C[C@H](CN1[C@@H]2CC[C@H]1C[C@@H](c1cccc(O)c1)C2)N(Cc1ccccc1)C(=O)C1CCCCC1 | 7 to 10.5 | 7 to 10.5 | < 40
CCN(CC)CC[C@H](O)C(=O)N(CCN1[C@@H]2CC[C@H]1C[C@@H](c1cccc(C(N)=O)c1)C2)CC1CCCCC1 | 7 to 10.5 | 7 to 10.5 | < 40
NC(=O)c1cccc([C@H]2C[C@H]3CC[C@@H](C2)N3CCCN(Cc2ccccc2)C(=O)[C@H](O)CO)c1.O=C(O)C(F)(F)F | 7 to 10.5 | 7 to 10.5 | < 40
NC(=O)c1cccc([C@H]2C[C@H]3CC[C@@H](C2)N3CCN(C[C@H]2CC[C@H](O)CC2)C(=O)[C@@H](O)CO)c1 | – | – | < 40
CCC(C)NC(=O)N(CCN1[C@@H]2CC[C@H]1C[C@@H](c1cccc(C(N)=O)c1)C2)CC1CCCCC1 (stereo not given in full) | – | – | < 40
CCC(C)NC(=O)N(CCN1[C@@H]2CC[C@H]1C[C@@H](c1cccc(O)c1)C2)CC1CCCCC1 (stereo not given in full) | – | – | < 40
O=C(CO)N(CCN1[C@@H]2CC[C@H]1C[C@@H](c1cccc(O)c1)C2)CC12CC3CC(CC(C3)C1)C2 | – | – | < 40
O=C(C(O)CCc1ccccc1)N(CCN1[C@@H]2CC[C@H]1C[C@@H](c1cccc(O)c1)C2)CC1CCCCC1 (stereo not given in full) | – | – | < 40
NC(=O)c1cccc([C@H]2C[C@H]3CC[C@@H](C2)N3CCN(CC2CCC(F)CC2)C(=O)CO)c1 (stereo not given in full) | – | – | < 40
O=C(CO)N(CCN1[C@@H]2CC[C@H]1C[C@@H](c1cccc(O)c1)C2)Cc1ccc(Cl)cc1 | – | – | < 40
NC(=O)c1cccc([C@H]2C[C@H]3CC[C@@H](C2)N3CCN(Cc2ccccc2)C(=O)[C@H](O)CO)c1 | – | – | < 40
NC(=O)c1cccc([C@H]2C[C@H]3CC[C@@H](C2)N3CCN(CC2CCC(F)(F)CC2)C(=O)[C@@H](O)CO)c1 | – | – | < 40
O=C(N(CCN1[C@@H]2CC[C@H]1C[C@@H](c1cccc(O)c1)C2)CC1CCCCC1)C1(O)CC1 | – | – | < 40
CN(C)S(=O)(=O)N(CCN1[C@@H]2CC[C@H]1C[C@@H](c1cccc(C(N)=O)c1)C2)Cc1ccc(CF)cc1 | – | – | < 40
CC(C)(C)NCC[C@H](O)C(=O)N(CCN1[C@@H]2CC[C@H]1C[C@@H](c1cccc(C(N)=O)c1)C2)CC1CCCCC1 | – | – | < 40
CC(C)(C)C(=O)N(CCCN1[C@@H]2CC[C@H]1C[C@@H](c1cccc(C(N)=O)c1)C2)Cc1ccccc1 | – | – | < 40
O=C(O)C1CCCCC1C(=O)N(CCN1[C@@H]2CC[C@H]1C[C@@H](c1cccc(O)c1)C2)CC1CCCCC1 (stereo not given in full) | – | – | < 40
NC(=O)c1cccc([C@H]2C[C@H]3CC[C@@H](C2)N3CCN(CC2CCC(C(F)(F)F)CC2)C(=O)[C@@H](O)CO)c1 (stereo not given in full) | – | – | < 40
NC(=O)c1cccc([C@H]2C[C@H]3CC[C@@H](C2)N3CCN(CC2CCC(C(F)(F)F)CC2)C(=O)CO)c1 (stereo not given in full) | – | – | < 40
CC1CCC(CN(CCN2[C@@H]3CC[C@H]2C[C@@H](c2cccc(C(N)=O)c2)C3)C(=O)CS(C)(=O)=O)CC1 (stereo not given in full) | – | – | < 40

Compound | pKi [1] | pKi [2] | Intrinsic activity [3] [%]
CC1CCC(CN(CCN2[C@@H]3CC[C@H]2C[C@@H](c2cccc(C(N)=O)c2)C3)C(=O)[C@@H](O)CO)CC1 (stereo not given in full) | – | – | < 40
NC(=O)c1cccc([C@H]2C[C@H]3CC[C@@H](C2)N3CCN(CC23CC4CC(CC(O)(C4)C2)C3)C(=O)CO)c1 | – | – | < 40
COC(=O)CCC(=O)N(CCN1[C@@H]2CC[C@H]1C[C@@H](c1cccc(O)c1)C2)Cc1ccccc1 | – | – | < 40
O=C(O)C(O)CC(=O)N(CCN1[C@@H]2CC[C@H]1C[C@@H](c1cccc(O)c1)C2)Cc1cccc(F)c1 (stereo not given in full) | – | – | < 40
CC(O)C(O)C(=O)N(CCCN1[C@@H]2CC[C@H]1C[C@@H](c1cccc(C(N)=O)c1)C2)Cc1ccccc1 (stereo not given in full) | – | – | < 40
O=C(CO)N(CCN1[C@@H]2CC[C@H]1C[C@@H](c1cccc(O)c1)C2)Cc1ccccc1 | 7 to 10.5 | 7 to 10.5 | –
CC(=O)N(CCN1[C@@H]2CC[C@H]1C[C@@H](c1cccc(C(N)=O)c1)C2)CC12CC3CC(CC(C3)C1)C2 | – | – | < 40
O=C(O)CCC(=O)N(CCN1[C@@H]2CC[C@H]1C[C@@H](c1cccc(O)c1)C2)CC12CC3CC(CC(C3)C1)C2 | – | – | < 40
O=C(CCC1CCCC1)N(CCN1[C@@H]2CC[C@H]1C[C@@H](c1cccc(O)c1)C2)CC1CCCCC1 | – | – | < 40
CC(O)C(=O)N(CCN1[C@@H]2CC[C@H]1C[C@@H](c1cccc(C(N)=O)c1)C2)Cc1ccccc1 (stereo not given in full) | – | – | < 40
O=C(O)c1cccc([C@H]2C[C@H]3CC[C@@H](C2)N3CCN(CC2CCCCC2)C(=O)[C@@H](O)CO)c1 | – | – | < 40
NC(=O)c1cccc([C@H]2C[C@H]3CC[C@@H](C2)N3CCN(CC2CCC(F)CC2)C(=O)[C@@H](O)CO)c1 (stereo not given in full) | – | – | < 40
C[C@@H](O)[C@H](O)C(=O)N(CCN1[C@@H]2CC[C@H]1C[C@@H](c1cccc(C(N)=O)c1)C2)Cc1ccccc1 | – | – | < 40
CS(=O)(=O)CC(=O)N(CCc1ccccc1)CCN1[C@@H]2CC[C@H]1C[C@@H](c1cccc(C(N)=O)c1)C2.O=C(O)C(F)(F)F | 7 to 10.5 | 7 to 10.5 | –
NC(=O)c1cccc([C@H]2C[C@H]3CC[C@@H](C2)N3CCN(CC23CC4CC(CC(C4)C2)C3)C(=O)CCC(=O)O)c1 | – | – | < 40
CS(=O)(=O)CC(=O)N(CCN1[C@@H]2CC[C@H]1C[C@@H](c1cccc(C(N)=O)c1)C2)CC1CCC(C(F)(F)F)CC1 (stereo not given in full) | – | – | < 40
CN(C)CC(O)C(=O)N(CCN1[C@@H]2CC[C@H]1C[C@@H](c1cccc(C(N)=O)c1)C2)CC1CCCCC1 (stereo not given in full) | – | – | < 40
NC(=O)c1cccc([C@H]2C[C@H]3CC[C@@H](C2)N3CCN(CC23CC4CC(CC(O)(C4)C2)C3)C(=O)[C@@H](O)CO)c1 | – | – | < 40
C[C@H](O)C(=O)N(CCCN1[C@@H]2CC[C@H]1C[C@@H](c1cccc(C(N)=O)c1)C2)Cc1ccccc1 | – | – | < 40
NC(=O)c1cccc([C@H]2C[C@H]3CC[C@@H](C2)N3CCN(C[C@H]2CC[C@@H](O)CC2)C(=O)[C@@H](O)CO)c1 | – | – | < 40
